# In patent US20250090551A1, “BUDESONIDE 21-PHOSPHATE SODIUM SALT FOR USE AS ANTI-INFLAMMATORY OR ANTIASTHMATIC AGENT” (GENETIC S.P.A., priority 2021, published 2025):
# Experiments:
# [1] = tested on: carrageenan-induced paw edema in CD-1 mice; assay: Carrageenan-induced paw edema; format: in vivo; settings: first phase; for time after carrageenan at which the significant inhibition level is reached (onset of effect): dose of 0.3 mg/kg, i.p.; for dose relation of anti-inflammatory effect / maximum inhibition of edema: doses 0.1, 0.3, 1 mg/kg i.p.; for maximum inhibition of edema: Bud-21 P—Na2 maximum with either 0.3 or 1 mg/kg
# Description: In Protocol 1 (paw edema), the test compounds budesonide (Bud) and budesonide 21-phosphate sodium salt (Bud 21-P Na2) have been tested. Both compounds were administered in a volume of 100 μl intraperitoneally 1 hour before the induction of the inflammatory reaction. Doses of 0.1, 0.3 e 1 mg/kg were tested.
# Carrageenan edema in the paw of the CD-1 mice involves the sub-plantar administration of 50 μl of 1% carrageenan and the measurement of the increase in the volume of the paw by using a hydroplethysmometer. This experimental model has a biphasic development (Posadas et al., Br J Pharmacol 2004 May; 142(2):331-338). The first phase, which is acute, is sustained by an increase in permeability accompanied by infiltration of neutrophils, which develops and resolves between 4 and 5 hours. The second phase occurs after 24 hours and is characterized by macrophage infiltration and has the characteristics of sub chronic inflammation, which reaches its maximum after 72 hours and resolves after 5 days. Bud and Bud 21-P Na2 have been tested. Both compounds were administered in a volume of 100 μl intraperitoneally 1 hour before the induction of the inflammatory reaction. Doses of 0.1, 0.3 e 1 mg/kg were tested.
# [2] = tested on: methacholine-induced bronchoconstriction in OVA-induced allergic Balb/c mice; assay: Lung hyperreactivity / Penh function in OVA-induced allergic asthma; format: in vivo; settings: 3, 10 and 30 nmol/animal/day i.n., 4 weeks; vs untreated OVA group
# Description: (§1) In Protocol 2, the test compounds Bud (MW: 430.53 g/mol) and Bud-21 P Na2 (MW: 554.48 g/mol) were administered at equimolar doses of 3, 10 and 30 nmol/animal/day, equivalent to 1.3, 4.3 and 12.9 μg/animal/day of Bud, 1.7, 5.5 and […] of Bud-21 P Na2, respectively. The compounds were dissolved in 10% sterile saline+90% DMSO (Sigma Chemical Co., St. Louis, MO) at the correspondent concentrations at which the above-mentioned doses per animal result from the intra-nasal (i.n.) administration of 10 μl/animal (5 μl/nostril) of each of the solutions.
# Chicken egg-white ovalbumin (OVA; grade V, cat. A5503, Sigma Chemical Co., St. Louis, MO) was dissolved in sterile phosphate buffered saline (PBS) solution (250 μg/ml) and Al(OH)3 was added (at 13 mg/ml). This mix was used to induce the allergic sensitization of the animals by subcutaneous injection. OVA was dissolved at 1% in sterile PBS solution and this solution was nebulized (as the immunological challenges).
# (§2) Mice were sensitized with two subcutaneous injections of 0.2 ml of OVA/Al(OH)3, with an interval of 7 days (Sham animals received the Al(OH)3 suspension in PBS with no OVA). Seven days after the second sensitization (i.e., 3rd week), the animals were nebulized twice a week with the 1% OVA solution (Sham and untreated OVA groups were nebulized with PBS) during 20 minutes for the next 2 weeks.
# Three hours after the challenges (OVA nebulization) and daily during the next 4 weeks (following the first OVA challenge), mice were intra-nasally treated (10 μl/animal as 5 μl/nostril) with the respective compounds/vehicle, and the last dose was administered 30 min before the Penh measurement at the end of the 6th week.
# Airway responsiveness in conscious, spontaneously breathing animals was measured at the end of the 6th week (i.e., after 4-week OVA challenges+treatments), 24 h after the last OVA/PBS challenge via whole body plethysmography (Buxco Europe Ltd, Winchester, UK), as previously described (Santos et al., 2014). Experiments were carried out in a quiet room by an investigator who was unaware of the nature of treatments.
# Aerosolized saline (50 μl/mouse during 60 s) and then the muscarinic agonist methacholine (MCh) at increasing concentrations (3.12, 6.25, 12.5 and 25.0 mg/ml in PBS) was nebulized through an inlet of the main chamber for 3 min each to induce bronchoconstriction and readings were taken and averaged for 6 min following each nebulization. After 20 min, the baseline values usually returned at the end of this period. Enhanced pause (Penh) was measured as an indicator of bronchoconstriction and consequent increase of airway resistance as: Penh=[(expiration time/relaxation time)−1]/(maximum expiration flow/maximum inspiration flow).
# [3] = tested on: leukocyte recruitment to the bronchoalveolar space in OVA-induced allergic Balb/c mice; assay: BAL fluid total and differential leukocyte counts in OVA-induced allergic asthma; format: in vivo; settings: 4 weeks, vs Sham
# Description: as §1
# as §2, with “[…]. […]” for “weeks.”
# After Penh evaluation, the mice were anesthetized with inhaled isofluorane (5% v/v in O2) and blood samples were collected from the descending abdominal aorta. […] Total cell counts were determined using a Neubauer chamber, and differential counting was carried out in cytospin (Fanem Mod 2400; Sao Paulo, Brazil) preparations stained with May-Grünwald dye. […]
# [4] = tested on: BK- and C48/80-induced plasma extravasation in dorsal skin of C57Bl/6 mice; assay: Skin edema (plasma extravasation, Evans blue method) induced by BK or C48/80; format: in vivo; settings: for BK-induced plasma extravasation / reduction of C48/80-induced plasma extravasation: 2.32 μmol/kg i.p. (1.0 mg/kg Bud, 1.3 mg/kg Bud-21 P—Na2) 60 min before i.d. injection, 30 min
# Description: In Protocol 3, Bud (at doses of 1.0 and 0.30 mg/kg) and Bud 21-P Na2 (at doses of 1.3 and 0.39 mg/kg) were administered on a molar base, these doses were equivalent to […] μmol/kg of each compound, respectively. The vehicle for dissolution of the compounds was sterile saline solution (0.9% NaCl) containing 12.5% DMSO (Sigma Chemical Co., St. Louis, MO). The compound solutions were prepared at concentrations such that the administered dose per kg of body weight results from the intraperitoneal (i.p.) administration of 10 ml/kg of each of the solutions.
# Skin edema was assessed in mice according to the method previously described by Costa et al. (2006), Vasc. Pharmacol; 45: 209-214 and Yshii et al (2009), Toxicon; 53: 42-52. The mice were anesthetized with urethane (25% w/v, 10 ml/kg, i.p.), had their dorsal skin shaved, and thereafter i.p. treated with the vehicle/test compounds. Fifty-five minutes later, a volume of 100 μL of Evans blue dye solution (0.25% in sterile saline) was intravenously (i.v.) injected via the tail vein. Five minutes later, the BK and C48/80 were intradermally (i.d.) injected into the dorsal skin at a fixed volume of 50 μl using a randomized scheme. The same volume of Tyrode solution 50 μl was injected as a control. Thirty minutes later, a 1 ml blood sample was obtained via cardiac puncture and the mice were killed by urethane overdose followed by cervical dislocation. The blood samples were centrifuged at 6,000 g for 4 min to obtain the plasma. The dorsal skin was removed, and the injected sites were punched out using an 8 mm diameter cork borer. A non-injected skin site distant from the injection sites was also punched and taken as a blank. The dye was extracted from each piece of skin and plasma (100 μl) samples using formamide, and the absorbance of the resulting solutions was measured at 620 nm. The plasma extravasation due to each agent (expressed in μl/site) was calculated as the ratio between the absorbance of each respective skin piece, corrected by the blank value and plasma sample solutions, properly adjusted by the dilution factors [Vasc. Pharmacol (2006); 45: 209-214]. To homogenate data due to the variability of different group of animals (inter-group variations), edema data are expressed as the fold-change response relative to the mean Tyrode (control) response of each experiment.
# [5] = cited from earlier work
# [6] = at physiological pH in the intestinal region; cited from earlier work
# [7] = 0.70 μmol/kg i.p. (0.30 mg/kg Bud, 0.39 mg/kg Bud-21 P—Na2)
compound,measurement,setting,value
"CCCC1OC2CC3C4CCC5=CC(=O)C=CC5(C)C4C(O)CC3(C)C2(C(=O)CO)O1 (stereo not drawn) [Bud, 11β,21-dihydroxy-16α,17α-(butylidenebis(oxy))pregna-1,4-diene-3,20-dione]",time after carrageenan at which the significant inhibition level is reached (onset of effect),[1],6 h
same,dose relation of anti-inflammatory effect,[1],not dose-related
same,maximum inhibition of edema,[1],about 50%
same,Penh AUC (area under Penh vs methacholine curve),[2],significant reduction of this response just at the highest dose
same,Penh Emax (maximal response),[2],significant reduction of this response just at the highest dose
same,total BAL leukocytes compared with Sham,[3]; 3 nmol/animal/day i.n.,still significantly higher than that observed in the Sham mice
same,BAL macrophages compared with Sham,[3]; either 3 or 10 nmol/animal/day i.n.,still significantly higher than those observed in the Sham group
same,BK-induced edema,[4]; [7],ineffective
same,C48/80-induced edema,[4]; [7],ineffective
same,BK-induced plasma extravasation,[4],abolished
same,reduction of C48/80-induced plasma extravasation,[4],approximately 50%
same,logP,[5],3.2
same,solubility in water,[6],28 µg/mL
Budesonide 21-phosphate sodium salt [Bud-21 P—Na2],inhibition of edema formation,[1]; 0.1 mg/kg i.p. 60 min before carrageenan,50%
same,time after carrageenan at which the significant inhibition level is reached (onset of effect),[1],2 h
same,dose relation of anti-inflammatory effect,[1],dose-related anti-inflammatory effect
same,maximum inhibition of edema,[1],70%
same,Penh AUC (area under Penh vs methacholine curve),[2],significantly reduced
same,Penh Emax (maximal response),[2],significantly reduced
same,C48/80-induced edema,[4]; [7],significantly inhibited
same,BK-induced plasma extravasation,[4],abolished
same,reduction of C48/80-induced plasma extravasation,[4],approximately 50%
